The text below walks through data of US12029724B2, “Method for inhibiting tumor growth” (Eisai R&D Management Co., Ltd., priority 2016, dated 2024).

Assay [1] has as its system KB (HeLa) uterine cancer (cervical cancer). The assay is described as follows: anti-tumor activity, KB (HeLa) xenograft in nude mice. The following applies: KB (HeLa) model, i.v. day 0 and day 7, start tumor volume 150 mm^3, log RTV, day 7-day 14. Type of assay: in vivo, human. The text has this:
(§1) Cancer cell lines were purchased from the Riken Bioresource Center (RBC, Japan (Ibaraki)), American Type Culture Collection (ATCC, USA (Manassas, Va.)), Deutsche Sammlung von Mikroorganismen and Zellkulturen GmbH (German Collection of Microorganisms and Cell Cultures GmbH: DSMZ, Germany (Braunschweig)), Health Science Research Resource Bank (HSRRB, Japan (Osaka)), and the DS Pharma Biomedical Co., Ltd. (DS-Pharma, Japan (Osaka)), and were kindly donated by the Kyushu Cancer Center, Kagoshima University, and the Cell Resource Center for Biomedical Research of the Institute of Development, Aging, and Cancer of Tohoku University.
(§2) In the tables, the cancer cell lines to which “*” is added in the “acclimation” column were obtained from grown tumors which were formed by subcutaneously inoculating each cancer cell line to a mouse in advance.
The KB cells indicated as a cancer cell line in Table 2 were originally thought to be derived from an epithelial cancer. […] In addition, ITS-G supplement (Wako Pure Chemical Industries, Ltd., #090-06741) was used as the ITS. […]
(§3) The tumor size was measured over time with a caliper, and the tumor volume was determined based on the following calculation formula. tumor volume (mm^3)=length (mm)×square of width (mm^2)×½ […]

Assay [2] deals with ECC-1 uterine cancer (endometrial cancer). The assay is described as follows: anti-tumor activity, ECC-1 xenograft in nude mice. Format: in vivo, human. Conditions: ECC-1 model, i.v. day 0 and day 7, start tumor volume 160 mm^3, log RTV, day 4-day 19.
Description: as §1, §2
(§4) On the initial day of inoculation, the cancer cells were harvested by trypsinization and were washed and suspended using the particular medium. Some of the harvested cancer cells were then mixed with GelTrex (Gibco, #12760-021 or A14132-02) at 1:1. […]
as §3

Assay [3] concerns AsPC-1 pancreatic cancer. Put plainly: anti-tumor activity, AsPC-1 xenograft in nude mice. Type of assay: in vivo, human. Conditions: AsPC-1 model, i.v. day 0 and day 7, start tumor volume 380 mm^3, log RTV, day 3-day 35.
Description: as §1, §2, §4, §3

Assay [4] has as its system K1 thyroid cancer. Put plainly: anti-tumor activity, K1 xenograft in nude mice. Format: in vivo, human. The following applies: K1 model, i.v. day 0 and day 7, start tumor volume 390 mm^3, log RTV, day 3-day 17.
Description: as §1, §2, §4, §3

For assay [5], the system named is A673 sarcoma (Ewing sarcoma). Put plainly: anti-tumor activity, A673 xenograft in nude mice. Format: in vivo, human. The following applies: A673 model, i.v. day 0 and day 7, start tumor volume 220 mm^3, log RTV, day 4-day 18.
Description: as §1, §2, §4, §3

In assay [6] the test system is SK-UT-1 sarcoma (leiomyosarcoma). Put plainly: anti-tumor activity, SK-UT-1 xenograft in nude mice. Conditions: day 3-day 10. Format: in vivo, human.
Description: as §1, §2, §4, §3

For assay [7], the system named is BXPC-3 pancreatic cancer. The assay is described as follows: anti-tumor activity, BXPC-3 xenograft in nude mice. Conditions: BXPC-3 model, i.v. day 0 and day 7, start tumor volume 120 mm^3, log RTV, day 7-day 21. Format: in vivo, human.
Description: as §1, §2, §4, §3

Assay [8] concerns MFE-296 uterine cancer (endometrial cancer). The assay is described as follows: anti-tumor activity, MFE-296 xenograft in nude mice. Type of assay: in vivo, human. Conditions: MFE-296 model, i.v. day 0 and day 7, start tumor volume 200 mm^3, log RTV, day 4-day 14.
Description: as §1, §2, §4, §3

Assay [9] relates to MES-SA sarcoma (leiomyosarcoma). Put plainly: anti-tumor activity, MES-SA xenograft in nude mice. Format: in vivo, human.
Description: as §1, §2, §4, §3

For assay [10], the system named is KP-1 pancreatic cancer. Put plainly: anti-tumor activity, KP-1 xenograft in nude mice. Type of assay: in vivo, human. Conditions: KP-1 model, i.v. day 0 and day 7, start tumor volume 200 mm^3, log RTV, day 3-day 14.
Description: as §1, §2
(§5) On the initial day of inoculation, the cancer cells were harvested by trypsinization and were washed and suspended using the particular medium. Some of the harvested cancer cells were then mixed with GelTrex (Gibco, #12760-021 or A14132-02) at 1:1. Using a 26-gauge syringe needle, these cells were inoculated at a volume of 0.1 mL into the vicinity of the right axillary region of mice (BALB/c nu/nu). […]

Assay [11] deals with OMC9 sarcoma (leiomyosarcoma). Put plainly: anti-tumor activity, OMC9 xenograft in nude mice. Conditions: OMC9 model, BALB/c nu/nu mice, i.v. day 0 and day 7, start tumor volume 150 mm^3, log RTV, day 7-day 35. Format: in vivo, human.
Description: as §1, §2, §4, §3

Assay [12] concerns human xenograft models. Put plainly: anti-tumor activity, summary over the 18 human xenograft models. The following applies: in all 18 human xenograft models, RM-ANOVA using log RTV, P<0.05. Type of assay: in vivo.
Description: as §1, §2, §4, §3

Assay [13] has as its system HEC-151 uterine cancer (endometrial cancer). The assay is described as follows: anti-tumor activity, HEC-151 xenograft in nude mice. Format: in vivo, human. Conditions: HEC-151 model, i.v. day 0 and day 7, start tumor volume 220 mm^3, log RTV, day 3-day 14.
Description: as §1, §2, §4, §3

Assay [14] concerns PLC/PRF/5 liver cancer (hepatocellular carcinoma). The assay is described as follows: anti-tumor activity, PLC/PRF/5 xenograft in nude mice. Format: in vivo, human. Conditions: PLC/PRF/5 model, i.v. day 0 and day 7, start tumor volume 180 mm^3, log RTV, day 4-day 18.
Description: as §1, §2, §4, §3

Assay [15] deals with Hs746T stomach cancer. The assay is described as follows: anti-tumor activity, Hs746T xenograft in nude mice. Type of assay: in vivo, human. The following applies: Hs746T model, i.v. day 0 and day 7, start tumor volume 180 mm^3, log RTV, day 4-day 11.
Description: as §1, §2, §4, §3

Assay [16] relates to U251MG brain tumor (glioblastoma). Put plainly: anti-tumor activity, U251MG xenograft in nude mice. Format: in vivo, human. The following applies: U251MG model, i.v. day 0 and day 7, start tumor volume 150 mm^3, log RTV, day 5-day 23.
Description: as §1, §2, §5

Assay [17] concerns SK-LMS-1 sarcoma (leiomyosarcoma). Put plainly: anti-tumor activity, SK-LMS-1 xenograft in nude mice. Format: in vivo, human. The following applies: SK-LMS-1 model, i.v. day 0 and day 7, start tumor volume 290 mm^3, log RTV, day 2-day 7.
Description: as §1, §2, §4, §3

Assay [18] concerns UM-UC-3 urothelial cancer (bladder cancer). The assay is described as follows: anti-tumor activity, UM-UC-3 xenograft in nude mice. Type of assay: in vivo, human.
Description: as §1, §2, §4, §3

In assay [19] the test system is MFE-280 uterine cancer (endometrial cancer). Put plainly: anti-tumor activity, MFE-280 xenograft in nude mice. Type of assay: in vivo, human. Conditions: MFE-280 model, i.v. day 0 and day 7, start tumor volume 200 mm^3, log RTV, day 4-day 14.
Description: as §1, §2, §4, §3

Where a name gives a salt, the structure may show the parent alone.

Turning to `C=C1C[C@@H]2CC[C@@]34C[C@H]5O[C@H]6[C@@H](O3)[C@H]3O[C@H](CC[C@@H]3O[C@H]6[C@H]5O4)CC(=O)C[C@@H]3[C@@H](OC)[C@@H](C[C@H](O)CN)O[C@H]3C[C@H]3O[C@@H](CC[C@@H]1O2)C[C@@H](C)C3=C` [E7389, eribulin mesylate], the “RM-ANOVA E7389 vs vehicle” value in assay [1] was “Yes 1”; in assay [2], “Yes 1”; in assay [3], “Yes 1”; in assay [4], “Yes 1”; in assay [5], “Yes 1”; in [6] (SK-UT-1 model (Table 2 conditions), i.v. day 0 and day 7, start tumor volume 260 mm^3, log RTV), “Yes 1”. Besides, the “RM-ANOVA E7389 vs vehicle” value in assay [6] (SK-UT-1 model (Table 3 conditions), i.v. day 0 and day 7, start tumor volume 290 mm^3, log RTV) is “Yes 1”; in assay [7], “Yes 1”; in [8], “Yes 1”; in assay [9] (MES-SA model (Table 2 conditions), i.v. day 0 and day 7, start tumor volume 190 mm^3, log RTV, day 4-day 18), “Yes 1”; in assay [9] (MES-SA model (Table 3 conditions), i.v. day 0 and day 7, start tumor volume 420 mm^3, log RTV, day 3-day 7) it was “Yes 1”; in assay [10], “Yes 1”. For the same compound, the “RM-ANOVA E7389 vs vehicle” value in assay [11], in assay [13], in assay [14], in assay [15], in assay [16] and in assay [17] was “Yes 1” each time. The “RM-ANOVA E7389 vs vehicle” value in assay [18] (UM-UC-3 model (Table 2 conditions), i.v. day 0 and day 7, start tumor volume 230 mm^3, log RTV, day 3-day 10) was “Yes 1”; in assay [18] (UM-UC-3 model (Table 3 conditions), i.v. day 0 and day 7, start tumor volume 190 mm^3, log RTV, day 3-day 14), “Yes 1”; in [19], “Yes 1”. For the same compound, in assay [12], the “anti-tumor activity compared to the vehicle group” value is recorded as “statistically significant”.
